The values below are quoted from earlier work in publication PMC4221044, “Antimicrobial GL13K Peptide Coatings Killed and Ruptured the Wall of Streptococcus gordonii and Prevented Formation and Growth of Biofilms” (PLoS ONE, 2014).

The test system of series [1] is Pseudonomas aeruginosa biofilms. Conditions: 100 µg/ml GL13K. The text has this: (§1) Functionalization of titanium surfaces with coatings made of antimicrobial agents has recently been explored to inhibit peri-implant infections. The coatings can contain nanoparticles of pure elements, [5]; sanitizing agents and disinfectants; and antibiotics as well as antimicrobial peptides. Gentamicin [7]–[9] and Vancomycin [10]–[13] have been coated on Ti surfaces for protecting from infection dental and orthopedic implants.

The subject of series [2] is planktonic Pseudonomas aeruginosa. Conditions: peptide in solution.
Source text: as §1

In series [3] the test system is Streptococcus gordonii. The conditions noted are these: 100 µg/ml GL13K.
Source text: as §1

In the case of “GKIIKLKASLKLL-NH2 [GL13K, antimicrobial peptide …-NH2 derived from the human salivary protein BPIFA2]”, in series [1], the reduction of biofilms entry is “three orders of magnitude”. Also, the MIC in series [2] is 8 µg/mL. Further, the bacteria killed in series [3] is recorded as 100%.

Broadly, the MIC is the smallest concentration in the dilution series that meets the test's criterion for growth inhibition.
